Experimental data from ChEMBL document CHEMBL1667805, “Synthesis of new C5-(1-substituted-1,2,3-triazol-4 or 5-yl)-2'-deoxyuridines and their antiviral evaluation” (Eur J Med Chem, 2011).
Calls of active or inactive are those of the source. No cut-off for these calls is given here.

Columns and labels:
Human betaherpesvirus 5 [1] = experiment: microbe, parasite or virus in culture; details: Human betaherpesvirus 5, AD169, HEL
L1210 = experiment: cells; details: Mus musculus, L1210, 48 h
[2] = system: Mammalian orthoreovirus 1; format: functional, organism-based; details: Vero
Human alphaherpesvirus 3 [3] = experiment: microbe, parasite or virus in culture; details: Human alphaherpesvirus 3, strain Oka vaccine, HEL
HeLa = experiment: cells; details: Homo sapiens, 96 h
Punta Toro virus = format: functional, organism-based; details: Vero
in vitro = details: human, HEL cells
[4] = system: Vesicular stomatitis virus; format: functional, organism-based; details: HeLa
Sindbis virus = format: functional, organism-based; details: Vero
Influenza B virus = format: functional, organism-based; details: MDCK
Influenza A virus [5] = format: functional, organism-based; details: H3N2, MDCK
Coxsackievirus B4 = format: functional, organism-based; details: HeLa
Influenza A virus [6] = format: functional, organism-based; details: H1N1, MDCK
Human respirovirus 3 = format: functional, organism-based; details: Vero
Vaccinia virus = experiment: microbe, parasite or virus in culture; details: Orthopoxvirus vaccinia, HEL
Human betaherpesvirus 5 [7] = experiment: microbe, parasite or virus in culture; details: Human betaherpesvirus 5, Davis, HEL
[8] = system: Human immunodeficiency virus 1; experiment: Antiviral activity against HIV1 3B infected in human […] cells assessed as virus-induced CEM giant cell formation after 4 days; format: functional, organism-based
Human alphaherpesvirus 3 [9] = experiment: microbe, parasite or virus in culture; details: Human alphaherpesvirus 3, 07-1, HEL
Human alphaherpesvirus 1 [10] = experiment: microbe, parasite or virus in culture; details: Human alphaherpesvirus 1, KOS, HEL
Human alphaherpesvirus 1 [11] = experiment: microbe, parasite or virus in culture; details: Human alphaherpesvirus 1, KOS, HEL; remark: listed apart in the source
[12] = system: Vesicular stomatitis virus; format: functional, organism-based; details: MDCK
[13] = system: Human immunodeficiency virus 2; experiment: Antiviral activity against HIV2 ROD infected in human […] cells assessed as virus-induced CEM giant cell formation after 4 days; format: functional, organism-based; details: ISOLATE ROD
CCRF-CEM = experiment: cells; details: Homo sapiens, 72 h
Human alphaherpesvirus 2 = experiment: microbe, parasite or virus in culture; details: Human alphaherpesvirus 2, strain G, HEL

For CC(C)(C)c1ccc(-n2cc(-c3cn([C@H]4C[C@H](O)[C@@H](CO)O4)c(=O)[nH]c3=O)nn2)cc1, the EC50 (Human betaherpesvirus 5 [1]) was > 50 µM, the IC50 (L1210) was 15 µM and the inhibition [2] was “inactive”. For the same compound, the EC50 (Human alphaherpesvirus 3 [3]) was 7.7 µM, the IC50 (HeLa) was 9 µM and the inhibition (Punta Toro virus) was “inactive”. The CC50 at 72 h (in vitro) was 12.4 µM, the MCC at 72 h (in vitro) was 230 µM and the inhibition [4] was “inactive”. The inhibition (Sindbis virus) was “inactive”, the inhibition (Influenza B virus) was “inactive” and the inhibition (Influenza A virus [5]) was “inactive”. For the same compound, the inhibition (Coxsackievirus B4) was “inactive”, the inhibition (Influenza A virus [6]) was “inactive” and the inhibition (Human respirovirus 3) was “inactive”. The EC50 (Vaccinia virus) was 37 µM, the EC50 (Human betaherpesvirus 5 [7]) was > 50 µM and the inhibition [8] was “inactive”. For the same compound, the EC50 (Human alphaherpesvirus 3 [9]) was 35 µM, the EC50 (Human alphaherpesvirus 1 [10]) was > 50 µM and the EC50 (Human alphaherpesvirus 1 [11]) was > 50 µM. For the same compound, the inhibition [12] was “inactive”, the inhibition [13] was “inactive” and the IC50 (CCRF-CEM) was 11 µM. The EC50 (Human alphaherpesvirus 2) was > 50 µM.
For O=c1[nH]c(=O)n([C@H]2C[C@H](O)[C@@H](CO)O2)cc1-c1cn(-c2ccc(OC(F)(F)F)cc2)nn1, the EC50 (Human betaherpesvirus 5 [1]) was > 220 µM, the IC50 (L1210) was 50 µM and the inhibition [2] was “inactive”. For the same compound, the EC50 (Human alphaherpesvirus 3 [3]) was > 50 µM, the IC50 (HeLa) was 37 µM and the inhibition (Punta Toro virus) was “inactive”. The CC50 at 72 h (in vitro) was 47 µM, the MCC at 72 h (in vitro) was > 220 µM and the inhibition [4] was “inactive”. The inhibition (Sindbis virus) was “inactive”, the inhibition (Influenza B virus) was “inactive” and the inhibition (Influenza A virus [5]) was “inactive”. For the same compound, the inhibition (Coxsackievirus B4) was “inactive”, the inhibition (Influenza A virus [6]) was “inactive” and the inhibition (Human respirovirus 3) was “inactive”. For the same compound, the EC50 (Vaccinia virus) was > 50 µM, the EC50 (Human betaherpesvirus 5 [7]) was > 220 µM and the inhibition [8] was “inactive”. The EC50 (Human alphaherpesvirus 3 [9]) was > 50 µM, the EC50 (Human alphaherpesvirus 1 [10]) was > 50 µM and the EC50 (Human alphaherpesvirus 1 [11]) was > 50 µM. The inhibition [12] was “inactive”, the inhibition [13] was “inactive” and the IC50 (CCRF-CEM) was 35 µM. The EC50 (Human alphaherpesvirus 2) was > 50 µM.
With O=c1[nH]c(=O)n([C@H]2C[C@H](O)[C@@H](CO)O2)cc1-c1cn(-c2ccc(Cl)cc2)nn1 the EC50 (Human betaherpesvirus 5 [1]) was > 240 µM, the IC50 (L1210) was 14.8 µM and the inhibition [2] was “inactive”. For the same compound, the EC50 (Human alphaherpesvirus 3 [3]) was 41 µM, the IC50 (HeLa) was 4 µM and the inhibition (Punta Toro virus) was “inactive”. For the same compound, the CC50 at 72 h (in vitro) was 7.4 µM, the MCC at 72 h (in vitro) was > 240 µM and the inhibition [4] was “inactive”. The inhibition (Sindbis virus) was “inactive”, the inhibition (Influenza B virus) was “inactive” and the inhibition (Influenza A virus [5]) was “inactive”. The inhibition (Coxsackievirus B4) was “inactive”, the inhibition (Influenza A virus [6]) was “inactive” and the inhibition (Human respirovirus 3) was “inactive”. For the same compound, the EC50 (Vaccinia virus) was > 240 µM, the EC50 (Human betaherpesvirus 5 [7]) was > 131 µM and the inhibition [8] was “inactive”. The EC50 (Human alphaherpesvirus 3 [9]) was 48 µM, the EC50 (Human alphaherpesvirus 1 [10]) was > 240 µM and the EC50 (Human alphaherpesvirus 1 [11]) was > 240 µM. For the same compound, the inhibition [12] was “inactive”, the inhibition [13] was “inactive” and the IC50 (CCRF-CEM) was 13 µM. The EC50 (Human alphaherpesvirus 2) was > 240 µM.
For CSc1ccc(-n2cc(-c3cn([C@H]4C[C@H](O)[C@@H](CO)O4)c(=O)[nH]c3=O)nn2)cc1, the EC50 (Human betaherpesvirus 5 [1]) was > 50 µM, the IC50 (L1210) was 62 µM and the inhibition [2] was “inactive”. The EC50 (Human alphaherpesvirus 3 [3]) was 27 µM, the IC50 (HeLa) was 23 µM and the inhibition (Punta Toro virus) was “inactive”. For the same compound, the CC50 at 72 h (in vitro) was 27 µM, the MCC at 72 h (in vitro) was > 230 µM and the inhibition [4] was “inactive”. The inhibition (Sindbis virus) was “inactive”, the inhibition (Influenza B virus) was “inactive” and the inhibition (Influenza A virus [5]) was “inactive”. The inhibition (Coxsackievirus B4) was “inactive”, the inhibition (Influenza A virus [6]) was “inactive” and the inhibition (Human respirovirus 3) was “inactive”. The EC50 (Vaccinia virus) was > 50 µM, the EC50 (Human betaherpesvirus 5 [7]) was > 50 µM and the inhibition [8] was “inactive”. For the same compound, the EC50 (Human alphaherpesvirus 3 [9]) was > 50 µM, the EC50 (Human alphaherpesvirus 1 [10]) was > 50 µM and the EC50 (Human alphaherpesvirus 1 [11]) was > 50 µM. For the same compound, the inhibition [12] was “inactive”, the inhibition [13] was “inactive” and the IC50 (CCRF-CEM) was 50 µM. The EC50 (Human alphaherpesvirus 2) was > 50 µM.
